How the values were obtained:
human GLP-1R [1] = molecular target: human GLP-1R (Homo sapiens (Human), UniProt P43220, L260F); assay: CHO GLP-1R Clone C6—Assay 2: HTRF cAMP cell-based functional agonist assay (low GLP-1R density); settings: for EC50: CHO GLP-1R Clone C6, cAMP HTRF, geometric mean; for Emax: CHO GLP-1R Clone C6, relative to saturating concentration of full agonist GLP-1 (1 μM), arithmetic mean, read-out: Assay 2 Emax (%)
Method: GLP-1R-mediated agonist activity was determined with a cell-based functional assay utilizing an HTRF (Homogeneous Time-Resolved Fluorescence) cAMP detection kit (cAMP HI Range Assay Kit; Cis Bio cat #62AM6PEJ) that measures cAMP levels in the cell. The method is a competitive immunoassay between native cAMP produced by the cells and exogenous cAMP labeled with the dye d2. The tracer binding is visualized by a mAb anti-cAMP labeled with Cryptate. The specific signal (i.e. energy transfer) is inversely proportional to the concentration of cAMP in either a standard or an experimental sample.
The human GLP-1R coding sequence (NCBI Reference Sequence NP_002053.3, including naturally-occurring variant Leu260Phe) was subcloned into pcDNA5-FRT-TO and a clonal CHO cell line stably expressing a low receptor density was isolated using the Flp-In™ T-Rex™ System, as described by the manufacturer (ThermoFisher).
Cells were removed from cryopreservation, re-suspended in 40 mL of Dulbecco's Phosphate Buffered Saline (DPBS-Lonza Cat #17-512Q) and centrifuged at 800×g for 5 min at 22° C. The DPBS was aspirated, and the cell pellet was re-suspended in 10 mL of complete growth medium (DMEM:F12 1:1 Mixture with HEPES, L-Gln, 500 mL (DMEM/F12 Lonza Cat #12-719F), 10% heat inactivated fetal bovine serum (Gibco Cat #16140-071), 5 mL of 100× Pen-Strep (Gibco Cat #15140-122), 5 mL of 100× L-Glutamine (Gibco Cat #25030-081), 700 μg/mL Hygromycin (Invitrogen Cat #10687010) and 15 μg/mL Blasticidin (Gibco Cat #R21001). A 1 mL sample of the cell suspension in growth media was counted on a Becton Dickinson ViCell to determine cell viability and cell count per mL. The remaining cell suspension was then adjusted with growth media to deliver 1600 viable cells per well using a Matrix Combi Multidrop reagent dispenser, and the cells were dispensed into a white 384 well tissue culture treated assay plate (Corning 3570). The assay plate was then incubated for 48 h at 37° C. in a humidified environment (95% O2, 5% CO2)
Varying concentrations of each compound to be tested (in DMSO) were diluted in assay buffer [HBSS with Calcium/Magnesium (Lonza/BioWhittaker cat #10-527F)/0.1% BSA (Sigma Aldrich cat #A7409-1L)/20 mM HEPES (Lonza/BioWhittaker cat #17-737E)] containing 100 μM 3-isobutyl-1-methylxanthin (IBMX; Sigma cat #15879). The final DMSO concentration in the compound/assay buffer mixture is 1%.
After 48 h, the growth media was removed from the assay plate wells, and the cells were treated with 20 μL of the serially diluted compound in assay buffer for 30 min at 37° C. in a humidified environment (95% O2, 5% CO2). Following the 30 min incubation, 10 μL of labeled d2 cAMP and 10 μL of anti-cAMP antibody (both diluted 1:20 in cell lysis buffer; as described in the manufacturer's assay protocol) were added to each well of the assay plate. The plates were then incubated at room temperature and after 60 minutes, changes in the HTRF signal were read with an Envision 2104 multi-label plate reader using excitation of 330 nm and emissions of 615 and 665 nm. Raw data were converted to nM cAMP by interpolation from a cAMP standard curve (as described in the manufacturer's assay protocol) and the percent effect was determined relative to a saturating concentration of the full agonist GLP-1 (1 μM) included on each plate. EC50 determinations were made from agonist dose response curves analyzed with a curve fitting program using a 4-parameter logistic dose response equation.

human GLP-1R [2] = molecular target: human GLP-1R (Homo sapiens, UniProt P43220, G168S); assay: CHO GLP-1R Clone H6—Assay 1: HTRF cAMP cell-based functional agonist assay (high GLP-1R density); settings: for EC50: read-out: Assay 1 EC50, CHO GLP-1R Clone H6, cAMP HTRF, geometric mean; for Emax: read-out: Assay 1 Emax (%), CHO GLP-1R Clone H6, relative to saturating concentration of full agonist GLP-1 (1 μM), arithmetic mean
Chain of human GLP-1R (Homo sapiens, UniProt P43220, G168S) (P43220 24-463 G168S limits assumed): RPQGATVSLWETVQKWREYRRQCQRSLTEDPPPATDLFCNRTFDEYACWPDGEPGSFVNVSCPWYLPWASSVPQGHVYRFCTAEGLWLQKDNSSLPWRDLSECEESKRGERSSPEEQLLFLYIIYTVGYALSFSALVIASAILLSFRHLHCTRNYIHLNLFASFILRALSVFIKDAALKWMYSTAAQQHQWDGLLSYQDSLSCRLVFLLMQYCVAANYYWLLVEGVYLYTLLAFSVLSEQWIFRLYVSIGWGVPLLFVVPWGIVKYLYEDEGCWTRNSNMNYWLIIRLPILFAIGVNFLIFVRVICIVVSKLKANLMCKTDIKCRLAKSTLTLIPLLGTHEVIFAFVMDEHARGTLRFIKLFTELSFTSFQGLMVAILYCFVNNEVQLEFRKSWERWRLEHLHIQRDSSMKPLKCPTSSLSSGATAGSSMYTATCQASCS

Chain of human GLP-1R (Homo sapiens (Human), UniProt P43220, L260F) (P43220 24-463 L260F): as the sequence (P43220 24-463 G168S limits assumed) above, with S145G, L237F counted along it

Row | EC50 (human GLP-1R [1]) [nM] | Emax (human GLP-1R [1]) [%] | EC50 (human GLP-1R [2]) [nM] | Emax (human GLP-1R [2]) [%] | Compound
1 | 32 | 79 | 2 | 82 | O=C(O)c1ccc2nc(CN3CCC(c4cccc(OCc5ccc(Cl)cc5F)n4)CC3)n(Cc3ccno3)c2c1 [Example 10A-64, 2-[(4-{6-[(4-chloro-2-fluorobenzyl)oxy]pyridin-2-yl}piperidin-1-yl)methyl]-1-(1,2-oxazol-5-ylmethyl)-1H-benzimidazole-6-carboxylic acid]
2 | 24 | 91 | 1.5 | 73 | O=C(O)c1ccc2nc(CN3CCN(c4cccc(OCc5ccc(Cl)cc5F)n4)CC3)n(Cc3ncco3)c2c1 [Example 10A-33, 2-[(4-{6-[(4-chloro-2-fluorobenzyl)oxy]pyridin-2-yl}piperazin-1-yl)methyl]-1-(1,3-oxazol-2-ylmethyl)-1H-benzimidazole-6-carboxylic acid]
3 | 88 | 82 | 8.6 | 78 | O=C(O)c1ccc2nc(CN3CCC(c4cccc(OCc5ccc(Cl)cc5F)n4)CC3)n(C[C@@H]3CCCO3)c2c1 [Example 10A-73, 2-[(4-{6-[(4-chloro-2-fluorobenzyl)oxy]pyridin-2-yl}piperidin-1-yl)methyl]-1-[(2S)-tetrahydrofuran-2-ylmethyl]-1H-benzimidazole-6-carboxylic acid]

Continued, compound first:

Row | Compound | EC50 (human GLP-1R [1]) [nM] | Emax (human GLP-1R [1]) [%] | EC50 (human GLP-1R [2]) [nM] | Emax (human GLP-1R [2]) [%]
4 | COCCn1c(CN2CCN(c3cccc(OCc4ccc(Cl)cc4F)n3)[C@H](C)C2)nc2ccc(C(=O)O)cc21 [Example 1A-14, 2-{[(3R)-4-{6-[(4-chloro-2-fluorobenzyl)oxy]pyridin-2-yl}-3-methylpiperazin-1-yl]methyl}-1-(2-methoxyethyl)-1H-benzimidazole-6-carboxylic acid] | 1600 | 81 | 47 | 71
5 | O=C(O)c1cc2c(cn1)nc(CN1CCC(c3cccc(OCc4ccc(Cl)cc4F)n3)CC1)n2Cc1ncco1 [Example 2A-06, 2-[(4-{6-[(4-chloro-2-fluorobenzyl)oxy]pyridin-2-yl}piperidin-1-yl)methyl]-1-(1,3-oxazol-2-ylmethyl)-1H-imidazo[4,5-c]pyridine-6-carboxylic acid] | 170 | 85 | 9 | 82
6 | COCCn1c(CN2CCC(c3cccc(OCc4ccc(C#N)cc4)n3)CC2)nc2cc(F)c(C(=O)O)cc21 [Example 2A-14, 2-[(4-{6-[(4-cyanobenzyl)oxy]pyridin-2-yl}piperidin-1-yl)methyl]-5-fluoro-1-(2-methoxyethyl)-1H-benzimidazole-6-carboxylic acid] | 3000 | 92 | 110 | 71

Source: US10208019B2, “GLP-1 receptor agonists and uses thereof” (Pfizer Inc., priority 2016, dated 2019)
